Data reported in patent US20250109120A1, “INDOLINE DERIVATIVES FOR TREATMENT AND/OR PREVENTION OF TUMOR OR CELL PROLIFERATIVE AND FIBROSIS DISEASES” (NATIONAL TAIWAN UNIVERSITY, priority 2023, published 2025).
pIC50: −log10 of the molar value.

Tests used:
[1] = test system: A549 cells; experiment: TGF-β1-induced EMT protein expression, western blot; type: cell-based, human; details: test compounds 2 μM, senexin A 5 μM, pirfenidone 1 mM; TGF-β1 10 ng/mL
Procedure: FIGS. 4A-4B show the inhibition of epithelial-to-mesenchymal transition protein expressions by CDK8 inhibitors in human alveolar epithelial cells. […] Cell lysates were subjected to a Western blot analysis using the indicated antibodies. Results are shown as the mean t SEM from three independent experiments. *p<0.05, and ***p<0.001 compared to the control group; #p<0.05, ##p<0.01, and ###p<0.001 compared to the TGF-β1-treated group. […] Cell viabilities were determined by an MTT assay. Results are shown as the mean t SEM of three independent experiments.
(§1) Cells (106) were incubated for 10 min at 4° C. in lysis buffer (20 mM HEPES at pH 7.4, 2 mM EGTA, 50 mM β-glycerophosphate, 0.1% Triton X-100, 10% glycerol, 1 mM DTT, 1 μg/mL of leupeptin, 5 μg/mL of aprotinin, 1 mM phenylmethylsulfonyl fluoride, and 1 mM sodium orthovanadate), scraped off, incubated on ice for an additional 10 min, and centrifuged at 17,000 g for 30 min at 4° C. Protein samples (20 μg) were then electrophoresed on SDS-polyacrylamide gel electrophoresis (PAGE) gels and transferred to a nitrocellulose membrane, which was then blocked by incubation for 30 min at room temperature with 5% bovine serum albumin (BSA) in Tris-buffered saline with 0.1% Tween-20 (TBST). Immunoblotting was performed by overnight incubation at 4° C. with primary antibodies in TBST, followed by incubation for 1 h at room temperature with horseradish peroxidase (HRP)-conjugated secondary antibodies. Bound antibodies were measured using enhanced chemiluminescence (ECL) reagent (GE Healthcare, UK) and exposed to photographic film.

[2] = test system: A549 cells; experiment: Nuclear p-Smad3 T179 and RNA polymerase II pS2/S5 after TGF-β1, fractionation and western blot; type: cell-based, human; details: compound k 5 μM, senexin A 5 μM, pirfenidone 1 mM; TGF-β1 10 ng/ml 3 h
Procedure: FIGS. 8A-8B show the inhibitory effects of cellular distributions of TGF-β1-induced p-Smad3 T179, RNA polymerase II pS2/S5, and Smad3 after treatment with compound k. Human alveolar epithelial A549 cells were incubated with compound k (5 μM), senexin A (5 μM), or pirfenidone (1 mM) for 1 h, followed by stimulation with TGF-β1 (10 ng/ml) for 3 h. Protein expressions in the cytoplasmic and nuclear fractions were subjected to a Western blot analysis using the indicated antibodies. α-Tubulin and histone H3 served as loading controls for the cytoplasmic and nuclear fractions, respectively. Results are shown as the mean±SEM of three independent experiments. **p<0.01 and ***p<0.001 compared to the control group; #p<0.05 and ##p<0.01 compared to the TGF-β1-treated group.
as §1
A Nuclear/Cytosol Fractionation Kit (Biovision, USA) was used to separate the cytosolic and nuclear fractions. […]

[3] = test system: DU145 cells; experiment: LiCl-induced β-catenin signaling, western blot; type: cell-based, human; details: LiCl 20 mM; senexin A 10 μM
Procedure: Inhibitory phosphorylation of GSK3β was evaluated through western blotting. […] Whole-cell lysates were subjected to western blotting with the indicated antibodies. FIGS. 11J-11K show the comparison of basal activities of the Akt/GSK3β axis between PC-3 and DU145 cells. […] The results are shown as the mean±SEM from at least three independent experiments (*p<0.05, **p<0.01, ***p<0.001 vs. control group; #p<0.05, ##p<0.01, and ###p<0.001 vs. relevant control).
The cells were incubated in lysis buffer for 10 min at 4° C., scraped off, incubated on ice for an additional 10 min and then centrifuged at 17,000 g for 30 min at 4° C. Protein samples were electrophoresed on SDS-PAGE gels, transferred to PVDF membranes and blocked with 5% fat-free milk in PBS for 30 min at room temperature. Immunoblotting was performed overnight with primary antibodies in PBS at 4° C., followed by incubation with HRP-conjugated secondary antibodies for 1 h at room temperature. Bound antibodies will be measured using an ECL reagent and exposed to a photographic film. In the immunoprecipitation assay, cell lysates were immunoprecipitated with 1 μg of antibody and A/G agarose beads overnight at 4° C. After washing the precipitated beads three times with 1 mL ice-cold cell lysis buffer, bound immune complexes were separated by 10% SDS-PAGE and analyzed with immunoblotting.

[4] = target: CDK8 (Homo sapiens (Human), UniProt P49336); details: commercial CDK8 inhibitor; cited from earlier work
Sequence of CDK8 (P49336 whole entry, looked up, species assumed): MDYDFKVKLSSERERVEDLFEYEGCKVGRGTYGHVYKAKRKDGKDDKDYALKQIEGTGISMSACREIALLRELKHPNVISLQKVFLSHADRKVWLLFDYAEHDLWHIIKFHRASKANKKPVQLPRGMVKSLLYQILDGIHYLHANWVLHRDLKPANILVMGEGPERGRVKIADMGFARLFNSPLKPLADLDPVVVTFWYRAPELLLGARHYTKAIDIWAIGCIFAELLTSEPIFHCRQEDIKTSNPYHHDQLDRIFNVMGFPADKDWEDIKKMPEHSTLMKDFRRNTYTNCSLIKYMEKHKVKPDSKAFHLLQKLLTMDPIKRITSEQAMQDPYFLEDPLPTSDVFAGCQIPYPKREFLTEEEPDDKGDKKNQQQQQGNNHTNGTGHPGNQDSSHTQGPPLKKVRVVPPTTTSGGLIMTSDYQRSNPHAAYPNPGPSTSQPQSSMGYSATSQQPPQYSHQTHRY
Sequence of CDK8 (P24863 whole entry partner, looked up, species assumed): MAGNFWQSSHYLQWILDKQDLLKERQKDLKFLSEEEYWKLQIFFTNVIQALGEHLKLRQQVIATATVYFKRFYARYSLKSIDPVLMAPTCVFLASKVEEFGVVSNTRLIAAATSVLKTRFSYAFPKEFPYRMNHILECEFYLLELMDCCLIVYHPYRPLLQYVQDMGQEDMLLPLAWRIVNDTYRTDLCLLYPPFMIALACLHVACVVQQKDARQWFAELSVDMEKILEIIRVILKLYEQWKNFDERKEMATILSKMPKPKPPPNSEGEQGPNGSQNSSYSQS

## N#Cc1ccc2ncnc(NCCc3ccccc3)c2c1 [Senexin A, reference compound]
[1]
  TGF-β1-triggered EMT protein expressions: slight inhibition
[2]
  phosphorylation of p-Smad3 T179 and RNA Pol II pSer2/5: less-potent inhibition
[3]
  levels of active form of β-catenin and Snail: reduced the levels
[4]
  pIC50: 6.55
